Data as given in patent US8084003B2, “Ozone detecting device” (Nippon Telegraph and Telephone Corporation, priority 2006, dated 2011).
Where two headings read alike, the source gives them in different places.

Legend:
[1] = other water-soluble ultraviolet absorbers, temperature not given; cited from earlier work
[2] = Ultraviolet absorbing ability dissolved in a solvent (spectrum of transmitted light); format: physicochemical
Protocol: For example, when equal amounts of 2-hydroxy-4-methoxybenzophenone-5-sulfonic acid trihydrate and 4-dodecyloxy-2-hydroxybenzophenone are added, the ultraviolet absorbing ability of 4-dodecyloxy-2-hydroxybenzophenone is 1.25 times that of 2-hydroxy-4-methoxybenzophenone-5-sulfonic acid trihydrate on the average in a wavelength region of 300 to 400 nm.
Although the addition amount of 2-hydroxy-4-methoxybenzophenone-5-sulfonic acid trihydrate is 0.8 g and that of 4-dodecyloxy-2-hydroxybenzophenone is 0.5 g, i.e., there is a difference between the addition amounts, it is impossible to explain why the large difference is produced between the changes in absorbance by ultraviolet radiation when they are applied to ozone detecting devices. Note that the ultraviolet absorbing ability of an ultraviolet absorber is proportional to the addition amount. When dissolved in a solvent, therefore, the absorbing ability of 0.8 g of 2-hydroxy-4-methoxybenzophenone-5-sulfonic acid trihydrate is about 1.3 times that of 0.5 g of 4-dodecyloxy-2-hydroxybenzophenone.

[3] = Deposition of the ultraviolet absorber as powder on the surface of the detecting device; format: physicochemical; conditions: absorber solution in 50 ml acetone or water, device manufactured and dried
[4] = 25° C.
[5] = Ultraviolet exposure test with Artificial Sunlight XC-100AF (no UV filter), reflected-light absorbance at about 618 nm; format: physicochemical; conditions: dye used instead of indigo carmine, with ultraviolet absorber
Protocol: An ultraviolet exposure test (experiment) in which the ozone detecting devices A to G described above are irradiated with ultraviolet light is conducted. In this test, the influence of ultraviolet light was evaluated by using Artificial Sunlight XC-100AF available from SERIC with no UV filter attached. The incident angle of illuminating light to each of ozone detecting devices A to G was set at 20°, the distance from the lower end of the artificial sunlight to each of ozone detecting devices A to G was set at 110 cm, and each of ozone detecting devices A to G was set in a central portion where the intensity of the illuminating light is highest.
Each of ozone detecting devices A to G described above was irradiated with ultraviolet light minute by minute for 1 to 5 min, and the reflected light from the ozone detecting device was measured with a spectrophotometer whenever the device was irradiated. The influence of ultraviolet light was evaluated by using the change in absorbance at a wavelength of about 618 nm as an index.

Row | Compound | deposition in the form of powder on the surface of the device [3] | resistance to ultraviolet light with other dyes [5] | also measured
1 | Nc1ccc(C(=O)O)cc1 [p-aminobenzoic acid] | – | – | water solubility [1]: 0.4 wt %
2 | COc1cc(O)c(C(=O)c2ccccc2)cc1S(=O)(=O)O.O.O.O [2-hydroxy-4-methoxybenzophenone-5-sulfonic acid trihydrate] | none of these ultraviolet absorbers deposited in the form of powder | – | absorbing ability of 0.8 g relative to 0.5 g of 4-dodecyloxy-2-hydroxybenzophenone ([2]; dissolved in a solvent, scaled by addition amount): about 1.3 times; water solubility [4]: 25 wt %
3 | O=C(Oc1ccccc1)c1ccccc1O [phenyl salicylate] | – | – | water solubility [1]: 0.05 wt %
4 | O=S(=O)([O-])c1ccc(O)c(N=Nc2c(O)ccc3ccccc23)c1.[Na+] [Acid Alizarin Violet N] | – | possible to increase the resistance to ultraviolet light | –
5 | COc1cc(O)c(C(=O)c2ccccc2)cc1S(=O)(=O)[O-].[Na+] [2-hydroxy-4-methoxybenzophenone-5-sodium sulfonate] | none of these ultraviolet absorbers deposited in the form of powder | – | water solubility [4]: more than 2.5 wt %
6 | O=C(/C=C/c1ccccc1)c1ccccc1 [chalcone] | – | possible to increase the resistance to ultraviolet light | –
7 | CCC(C)(C)c1cc(-n2nc3ccccc3n2)c(O)c(C(C)(C)CC)c1 [2-(3,5-di-t-pentyl-2-hydroxyphenyl)-2H-benzotriazole] | deposits in the form of powder | – | –
8 | CC(C)(C)c1ccc(O)c(-n2nc3ccccc3n2)c1 [2-(2-hydroxy-5-t-butylphenyl)-2H-benzotriazole] | deposits in the form of powder | – | –
9 | CCCCCCCCCCCCOc1ccc(C(=O)c2ccccc2)c(O)c1 [4-dodecyloxy-2-hydroxybenzophenone, reference compound] | deposits in the form of powder | – | ultraviolet absorbing ability relative to 2-hydroxy-4-methoxybenzophenone-5-sulfonic acid trihydrate ([2]; equal amounts added, average in wavelength region 300 to 400 nm): 1.25 times
10 | O=C1c2ccccc2C(=O)c2c1ccc(O)c2O [alizarin] | – | possible to increase the resistance to ultraviolet light | –
